As a reminder, the MIC is the smallest concentration in the dilution series that meets the test's criterion for growth inhibition.

Experiment in all cases: MIC, microdilution (CLSI)
What all share (assay type): cell-based

Assay [1] relates to S. epidermidis ATCC 700296 (Se). To be noted: Staphylococcus epidermidis, ATCC700296; Se, S. epidermidis ATCC 700296; n = 3; read-out: MIC. As for the experimental part: (§1) Compounds were dissolved in dimethyl sulfoxide (DMSO) to achieve a starting concentration of 32 µg/mL as described by us previously. Compounds were further diluted two-fold across the 96-well honeycomb plate columns in cation adjusted Mueller Hinton broth (CAMHB), and bacterial culture was added. Plates were incubated for 18–20 h at 35 ℃ before determining the minimum concentrations at which wells had no visible turbidity to the naked eye. The MIC values were determined from at least a duplicate result obtained from three independent experiments using fresh bacterial cultures on different days.

The test system of assay [2] is S. aureus ATCC 33592 (Sa92). To be noted: Staphylococcus aureus, ATCC33592; Sa92, methicillin-resistant S. aureus ATCC 33592; n = 3; read-out: MIC. As for the experimental part: as §1
For assay [3], the system named is S. aureus ATCC 25923 (Sa23). The settings on record: Staphylococcus aureus, ATCC25923; Sa23, antibiotic susceptible S. aureus ATCC 25923; n = 3; read-out: MIC. As for the experimental part:
as §1

For assay [4], the system named is S. aureus BAA-2312 (Sa12). To be noted: Staphylococcus aureus, BAA2312; Sa12, methicillin-resistant S. aureus BAA-2312; n = 3; read-out: MIC. As for the experimental part:
as §1

The subject of assay [5] is E. faecium ATCC 700221 (Ef21). The settings on record: Enterococcus faecium, ATCC 700221 / VRE; Ef21, vancomycin-resistant (VRE) E. faecium ATCC 700221; n = 3; read-out: MIC. As for the experimental part: as §1
Assay [6] deals with S. aureus ATCC 33591 (Sa91). The settings on record: Staphylococcus aureus, ATCC33591; Sa91, methicillin-resistant S. aureus ATCC 33591; n = 3; read-out: MIC. As for the experimental part:
as §1

In assay [7] the test system is Bacillus subtilis ATCC 6623 (Bs). The settings on record: ATCC6623; Bs, Bacillus subtilis ATCC 6623; n = 3; read-out: MIC. As for the experimental part:
as §1

In assay [8] the test system is E. faecalis ATCC 29212 (Ef12). The settings on record: Enterococcus faecalis, ATCC29212; Ef12, antibiotic susceptible E. faecalis ATCC 29212; n = 3; read-out: MIC. As for the experimental part: as §1
Assay [9] deals with E. faecalis ATCC 51299 (Ef99). The settings on record: Enterococcus faecalis, ATCC 51299 / VRE; Ef99, vancomycin-resistant (VRE) E. faecalis ATCC 51299; n = 3; read-out: MIC. As for the experimental part: as §1
Assay [10] deals with S. aureus ATCC 700699 (Sa99). The settings on record: Staphylococcus aureus, ATCC700699; Sa99, methicillin-resistant S. aureus ATCC 700699; n = 3; read-out: MIC. As for the experimental part: as §1

Converted amounts (≈) assume the structure as drawn.

Take `O=C(O)c1ccc(-n2cc(CNc3ccc(Br)c(C(F)(F)F)c3)c(-c3cc(C(F)(F)F)cc(C(F)(F)F)c3)n2)cc1` [Compound 23, 4-[3-[3,5-Bis(trifluoromethyl)phenyl]-4-[[4-bromo-3-(trifluoromethyl)anilino]methyl]pyrazol-1-yl] benzoic acid]: the MIC in [1] amounted to 4 µg/mL (≈ 6.13 µM); in assay [2], 1 µg/mL (≈ 1.53 µM); in assay [3] it was 1 µg/mL (≈ 1.53 µM); in [4], 2 µg/mL (≈ 3.07 µM); in assay [5], 2 µg/mL (≈ 3.07 µM); in [6], 1 µg/mL (≈ 1.53 µM). Further, the MIC is 1 µg/mL (≈ 1.53 µM) in assay [7], 2 µg/mL (≈ 3.07 µM) in assay [8], 2 µg/mL (≈ 3.07 µM) in assay [9] and 2 µg/mL (≈ 3.07 µM) in [10].
As to `O=C(O)c1ccc(-n2cc(CNc3cccc(Br)c3)c(-c3cc(C(F)(F)F)cc(C(F)(F)F)c3)n2)cc1` [Compound 10, 4-[3-[3,5-Bis(trifluoromethyl)phenyl]-4-[(3-bromoanilino)methyl]pyrazol-1-yl] benzoic acid], the MIC in assay [1] is 4 µg/mL (≈ 6.85 µM); in assay [2], 2 µg/mL (≈ 3.42 µM); in assay [3] it was 2 µg/mL (≈ 3.42 µM); in assay [4], 2 µg/mL (≈ 3.42 µM); in assay [5], 4 µg/mL (≈ 6.85 µM); in assay [6], 2 µg/mL (≈ 3.42 µM). In addition, the MIC in assay [7] was 2 µg/mL (≈ 3.42 µM); in [8], 4 µg/mL (≈ 6.85 µM); in assay [9], 2 µg/mL (≈ 3.42 µM); in assay [10], 2 µg/mL (≈ 3.42 µM).
`O=C(O)c1ccc(-n2cc(CNc3ccc(F)c(Cl)c3)c(-c3cc(C(F)(F)F)cc(C(F)(F)F)c3)n2)cc1` [Compound 18, 4-[3-[3,5-Bis(trifluoromethyl)phenyl]-4-[(3-chloro-4-fluoro-anilino)methyl]pyrazol-1-yl] benzoic acid]: the minimal inhibitory concentration (MIC) in assay [1] came to 2 µg/mL (≈ 3.59 µM); in assay [2] it was 1 µg/mL (≈ 1.79 µM); in assay [3], 2 µg/mL (≈ 3.59 µM); in assay [4], 1 µg/mL (≈ 1.79 µM); in assay [5], 1 µg/mL (≈ 1.79 µM); in [6] it was 1 µg/mL (≈ 1.79 µM). Further, the MIC in [7] was found to be 1 µg/mL (≈ 1.79 µM); in assay [8] it was 2 µg/mL (≈ 3.59 µM); in assay [9] it was 2 µg/mL (≈ 3.59 µM); in [10], 2 µg/mL (≈ 3.59 µM).
For `O=C(O)c1ccc(-n2cc(CNc3cc(Cl)c(F)c(Cl)c3F)c(-c3cc(C(F)(F)F)cc(C(F)(F)F)c3)n2)cc1` [Compound 30, 4-[3-[3,5-Bis(trifluoromethyl)phenyl]-4-[(3,5-dichloro-2,4-difluoro-anilino)methyl]pyrazol-1-yl] benzoic acid], the MIC stood at 2 µg/mL (≈ 3.28 µM) in assay [1]; 1 µg/mL (≈ 1.64 µM) in assay [2]; 1 µg/mL (≈ 1.64 µM) in assay [3]; 2 µg/mL (≈ 3.28 µM) in assay [4]; 1 µg/mL (≈ 1.64 µM) in [5]; 1 µg/mL (≈ 1.64 µM) in assay [6]. For the same molecule, the minimal inhibitory concentration (MIC) was 1 µg/mL (≈ 1.64 µM) in assay [7], 2 µg/mL (≈ 3.28 µM) in assay [8], 2 µg/mL (≈ 3.28 µM) in assay [9] and 2 µg/mL (≈ 3.28 µM) in [10].
Turning to `O=C(O)c1ccc(-n2cc(CNc3ccc(F)cc3)c(-c3cc(C(F)(F)F)cc(C(F)(F)F)c3)n2)cc1` [Compound 8, 4-[3-[3,5-Bis(trifluoromethyl)phenyl]-4-[(4-fluoroanilino)methyl]pyrazol-1-yl] benzoic acid], the MIC is 4 µg/mL (≈ 7.64 µM) in assay [1]; 2 µg/mL (≈ 3.82 µM) in assay [2]; 2 µg/mL (≈ 3.82 µM) in assay [3]; 2 µg/mL (≈ 3.82 µM) in [4]; 4 µg/mL (≈ 7.64 µM) in [5]; 2 µg/mL (≈ 3.82 µM) in assay [6]. The MIC in [7] came to 1 µg/mL (≈ 1.91 µM); in assay [8], 4 µg/mL (≈ 7.64 µM); in assay [9], 4 µg/mL (≈ 7.64 µM); in assay [10] it was 4 µg/mL (≈ 7.64 µM).
For `O=C(O)c1ccc(-n2cc(CNc3ccc(Cl)cc3)c(-c3cc(C(F)(F)F)cc(C(F)(F)F)c3)n2)cc1` [Compound 9, 4-[3-[3,5-Bis(trifluoromethyl)phenyl]-4-[(4-chloroanilino)methyl]pyrazol-1-yl] benzoic acid], the minimal inhibitory concentration (MIC) in [1] is 2 µg/mL (≈ 3.7 µM); in assay [2], 1 µg/mL (≈ 1.85 µM); in assay [3] it was 2 µg/mL (≈ 3.7 µM); in [4], 1 µg/mL (≈ 1.85 µM); in assay [5], 2 µg/mL (≈ 3.7 µM); in assay [6], 2 µg/mL (≈ 3.7 µM). The minimal inhibitory concentration (MIC) in [7] was found to be 1 µg/mL (≈ 1.85 µM); in assay [8], 2 µg/mL (≈ 3.7 µM); in assay [9], 2 µg/mL (≈ 3.7 µM); in [10], 2 µg/mL (≈ 3.7 µM).
Regarding `O=C(O)c1ccc(-n2cc(CNc3ccc(F)c(Cl)c3F)c(-c3cc(C(F)(F)F)cc(C(F)(F)F)c3)n2)cc1` [Compound 27, 4-[3-[3,5-Bis(trifluoromethyl)phenyl]-4-[(3-chloro-2,4-difluoro-anilino)methyl]pyraz-ol-1-yl] benzoic acid], the MIC was determined as 2 µg/mL (≈ 3.47 µM) in assay [1]; 1 µg/mL (≈ 1.74 µM) in [2]; 1 µg/mL (≈ 1.74 µM) in assay [3]; 1 µg/mL (≈ 1.74 µM) in [4]; 1 µg/mL (≈ 1.74 µM) in assay [5]; 1 µg/mL (≈ 1.74 µM) in assay [6]. The MIC in assay [7] amounted to 1 µg/mL (≈ 1.74 µM); in assay [8], 2 µg/mL (≈ 3.47 µM); in [9], 2 µg/mL (≈ 3.47 µM); in [10] it was 2 µg/mL (≈ 3.47 µM).
As to `O=C(O)c1ccc(-n2cc(CNc3ccc(F)c(F)c3F)c(-c3cc(C(F)(F)F)cc(C(F)(F)F)c3)n2)cc1` [Compound 24, 4-[3-[3,5-Bis(trifluoromethyl)phenyl]-4-[(2,3,4-trifluoroanilino)methyl]pyrazol-1-yl] benzoic acid], the MIC in [1] was found to be 4 µg/mL (≈ 7.15 µM); in assay [2] it was 1 µg/mL (≈ 1.79 µM); in assay [3], 2 µg/mL (≈ 3.58 µM); in assay [4], 1 µg/mL (≈ 1.79 µM); in assay [5] it was 1 µg/mL (≈ 1.79 µM); in assay [6], 1 µg/mL (≈ 1.79 µM). Further, the MIC in [7] was found to be 1 µg/mL (≈ 1.79 µM); in assay [8], 2 µg/mL (≈ 3.58 µM); in [9] it was 2 µg/mL (≈ 3.58 µM); in assay [10], 2 µg/mL (≈ 3.58 µM).
With `O=C(O)c1ccc(-n2cc(CNc3cccc(F)c3)c(-c3cc(C(F)(F)F)cc(C(F)(F)F)c3)n2)cc1` [Compound 7, 4-[3-[3,5-Bis(trifluoromethyl)phenyl]-4-[(3-fluoroanilino)methyl]pyrazol-1-yl] benzoic acid], the MIC in assay [1] was found to be 4 µg/mL (≈ 7.64 µM); in assay [2], 2 µg/mL (≈ 3.82 µM); in assay [3] it was 4 µg/mL (≈ 7.64 µM); in [4] it was 2 µg/mL (≈ 3.82 µM); in assay [5], 4 µg/mL (≈ 7.64 µM); in assay [6], 4 µg/mL (≈ 7.64 µM). Also, the MIC in assay [7] is 2 µg/mL (≈ 3.82 µM); in assay [8] it was 8 µg/mL (≈ 15.3 µM); in [9], 4 µg/mL (≈ 7.64 µM); in [10], 4 µg/mL (≈ 7.64 µM).
For the molecule `COc1ccc(NCc2cn(-c3ccc(C(=O)O)cc3)nc2-c2cc(C(F)(F)F)cc(C(F)(F)F)c2)cc1` [Compound 4, 4-[3-[3,5-Bis(trifluoromethyl)phenyl]-4-[(4-methoxyanilino)methyl]pyrazol-1-yl] benzoic acid], the MIC in assay [1] is 16 µg/mL (≈ 29.9 µM); in assay [2], 8 µg/mL (≈ 14.9 µM); in assay [3], 8 µg/mL (≈ 14.9 µM); in assay [4] it was 4 µg/mL (≈ 7.47 µM); in [5] it was 8 µg/mL (≈ 14.9 µM); in [6] it was 8 µg/mL (≈ 14.9 µM). Moreover, the MIC in assay [7] worked out at 4 µg/mL (≈ 7.47 µM); in [8] it was 16 µg/mL (≈ 29.9 µM); in assay [9], 16 µg/mL (≈ 29.9 µM); in assay [10], 8 µg/mL (≈ 14.9 µM).
Regarding `CC(C)(C)c1ccc(NCc2cn(-c3ccc(C(=O)O)cc3)nc2-c2cc(C(F)(F)F)cc(C(F)(F)F)c2)cc1` [Compound 3, 4-[3-[3,5-Bis(trifluoromethyl)phenyl]-4-[(4-tert-butylanilino)methyl]pyrazol-1-yl] benzoic acid], the MIC in assay [1] turned out to be 1 µg/mL (≈ 1.78 µM); in [2], 2 µg/mL (≈ 3.56 µM); in assay [3], 1 µg/mL (≈ 1.78 µM); in assay [4], 1 µg/mL (≈ 1.78 µM); in assay [5], 2 µg/mL (≈ 3.56 µM); in [6], 1 µg/mL (≈ 1.78 µM). The MIC in assay [7] was determined as 2 µg/mL (≈ 3.56 µM); in assay [8] it was 1 µg/mL (≈ 1.78 µM); in [9] it was 0.5 µg/mL (≈ 0.89 µM); in assay [10], 2 µg/mL (≈ 3.56 µM).
Take `O=C(O)c1ccc(-n2cc(CNc3cc(F)c(F)c(F)c3)c(-c3cc(C(F)(F)F)cc(C(F)(F)F)c3)n2)cc1` [Compound 25, 4-[3-[3,5-Bis(trifluoromethyl)phenyl]-4-[(3,4,5-trifluoroanilino)methyl]pyrazol-1-yl] benzoic acid]: the MIC in assay [1] stood at 4 µg/mL (≈ 7.15 µM); in [2] it was 2 µg/mL (≈ 3.58 µM); in [3], 4 µg/mL (≈ 7.15 µM); in assay [4], 2 µg/mL (≈ 3.58 µM); in [5], 2 µg/mL (≈ 3.58 µM); in assay [6], 2 µg/mL (≈ 3.58 µM). Moreover, the MIC in [7] is 1 µg/mL (≈ 1.79 µM); in [8], 4 µg/mL (≈ 7.15 µM); in [9], 4 µg/mL (≈ 7.15 µM); in [10], 4 µg/mL (≈ 7.15 µM).

Values taken from paper PMC8398255, “Synthesis of 3,5-Bis(trifluoromethyl)phenyl-Substituted Pyrazole Derivatives as Potent Growth Inhibitors of Drug-Resistant Bacteria” (Molecules, 2021).
